Patent US20240150290A1, “HETEROCYCLIC P2Y14 RECEPTOR ANTAGONISTS” (priority 2021, published 2024)
≈ marks a conversion by molar mass, not a printed value. Like-named read-outs stand apart in the source and are kept apart here. Marks after values point to notes of the source that are not given here.

Tests used:
[1] = Aqueous solubility, pION method
[2] = HPLC-based lipophilicity (Log D7.4); conditions: for chromatographic logD: pH 7.4
hP2Y14R = biological target: T1, hP2Y14R (Homo sapiens, UniProt Q15391); test: Inhibition of fluorescent antagonist binding in whole hP2Y14R-expressing CHO cells (flow cytometry)
T1 construct: expressed in transfected cells; host or cells: CHO cells
T1 sequence (Q15391 1-338): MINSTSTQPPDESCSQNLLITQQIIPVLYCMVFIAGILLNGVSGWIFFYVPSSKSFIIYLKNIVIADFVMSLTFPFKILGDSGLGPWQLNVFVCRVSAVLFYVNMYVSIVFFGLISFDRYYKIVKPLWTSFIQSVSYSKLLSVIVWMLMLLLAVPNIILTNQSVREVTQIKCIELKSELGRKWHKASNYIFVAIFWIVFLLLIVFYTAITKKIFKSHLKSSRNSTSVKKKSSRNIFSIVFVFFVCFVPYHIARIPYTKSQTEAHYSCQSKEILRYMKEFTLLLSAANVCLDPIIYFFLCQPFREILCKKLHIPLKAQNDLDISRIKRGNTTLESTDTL

[3] = Table 2, whole hP2Y14R-CHO cells, 20 nM fluorescent antagonist 3, mean+SEM, n = 3-6, read-out: IC50

For `CC1CNCCC1c1ccc(-c2cc(C(=O)O)cc3cc(-c4ccc(C(F)(F)F)cc4)ccc23)cc1` (mixture of isomers) [Compound 106, 4-(4-(3-Methylpiperidin-4-yl)phenyl)-7-(4-(trifluoromethyl)phenyl)-2-naphthoic acid], the “Solubility (ug/mL) pH 4” value [1] was 1.36 ± 0.21 ug/mL, the “Solubility (ug/mL) pH 7.4” value [1] was 0.03 ± 0.02 ug/mL and the chromatographic logD [2] was 2.79 ± 0.09. The IC50 (hP2Y14R; [3]) was 20.9 ± 3.6 nM.
For `O=C(O)c1cc(-c2ccc(C3(O)C4CCC3CN(Cc3ccccc3)C4)cc2)c2ccc(-c3ccc(C(F)(F)F)cc3)cc2c1` (mixture of isomers) [Compound 130, 4-(4-((1R,5S,8r)-3-Benzyl-8-hydroxy-3-azabicyclo[3.2.1]octan-8-yl)phenyl)-7-(4-(trifluoromethyl)phenyl)-2-naphthoic acid], the chromatographic logD [2] was 3.26 ± 0.01.
In the case of `O=C(O)c1cc(-c2ccc(C3CCNC3)cc2)c2ccc(-c3ccc(C(F)(F)F)cc3)cc2c1` (racemic) [Compound 105, 4-(4-(Pyrrolidin-3-yl)phenyl)-7-(4-(trifluoromethyl)phenyl)-2-naphthoic acid], the chromatographic logD [2] is reported as 1.89 ± 0.07.
For `O=C(O)c1cc(-c2ccc([C@@]34CCNC[C@@H]3C4)cc2)c2ccc(-c3ccc(C(F)(F)F)cc3)cc2c1` (racemic) [Compound 108, 4-(4-(3-Azabicyclo[4.1.0]heptan-6-yl)phenyl)-7-(4-(trifluoromethyl)phenyl)-2-naphthoic acid], the solubility ([1]; pH 4, aqueous buffer) was 1.32 ± 0.17 µg/mL (≈ 2.71 µM), the solubility ([1]; pH 7.4, aqueous buffer) was 0.17 ± 0.01 µg/mL (≈ 0.349 µM) and the chromatographic logD [2] was 2.44 ± 0.06. For the same molecule, the IC50 (hP2Y14R) was 45.5 ± 7.2 nM.
With `O=C(O)c1cc(-c2ccc([C@@H]3CCN[C@H]4C[C@H]43)cc2)c2ccc(-c3ccc(C(F)(F)F)cc3)cc2c1` (racemic) [Compound 110, rac-4-(4-((1S,5R,6S)-2-Azabicyclo[4.1.0]heptan-5-yl)phenyl)-7-(4-(trifluoromethyl)phenyl)-2-naphthoic acid] the solubility ([1]; pH 4, aqueous buffer) was 0.1 ± 0.03 µg/mL (≈ 0.205 µM), the solubility ([1]; pH 7.4, aqueous buffer) was 0.51 ± 0.23 µg/mL (≈ 1.05 µM) and the chromatographic logD [2] was 2.59 ± 0.2. It also gave an IC50 (hP2Y14R) of 42.4 ± 11.7 nM.
With `O=C(O)c1cc(-c2ccc([C@@H]3CCN[C@@H]4C[C@@H]43)cc2)c2ccc(-c3ccc(C(F)(F)F)cc3)cc2c1` (racemic) [Compound 111, rac-4-(4-((1R,5R,6R)-2-Azabicyclo[4.1.0]heptan-5-yl)phenyl)-7-(4-(trifluoromethyl)phenyl)-2-naphthoic acid] the “Solubility (ug/mL) pH 4” value [1] was 0.24 ± 0.02 ug/mL, the solubility ([1]; pH 7.4, aqueous buffer) was 0.05 ± 0.04 µg/mL (≈ 0.103 µM) and the chromatographic logD [2] was 1.75 ± 0.06. It also gave an IC50 (hP2Y14R) of 61.8 ± 14.1 nM.
For `O=C(O)c1cc(-c2ccc([C@H]3C[C@H]4C[C@@H]3CN4)cc2)c2ccc(-c3ccc(C(F)(F)F)cc3)cc2c1` (racemic) [Compound 112, rac-4-(4-((1S,4S,5S)-2-Azabicyclo[2.2.1]heptan-5-yl)phenyl)-7-(4-(trifluoromethyl)phenyl)-2-naphthoic acid], the solubility ([1]; pH 7.4, aqueous buffer) was 0.47 ± 0.06 µg/mL (≈ 0.964 µM), the chromatographic logD [2] was 1.95 ± 0.01 and the IC50 (hP2Y14R) was 5.9 ± 0.7 nM.
Work on `CC(=O)N1C[C@H]2C[C@@H]1C[C@@H]2c1ccc(-c2cc(C(=O)O)cc3cc(-c4ccc(C(F)(F)F)cc4)ccc23)cc1` (racemic) [Compound 113, rac-4-(4-((1S,4S,5S)-2-Acetyl-2-azabicyclo[2.2.1]heptan-5-yl)phenyl)-7-(4-(trifluoromethyl)phenyl)-2-naphthoic acid] yielded a solubility ([1]; pH 4, aqueous buffer) of 0.13 ± 0.04 µg/mL (≈ 0.245 µM), a solubility ([1]; pH 7.4, aqueous buffer) of 2.53 ± 0.43 µg/mL (≈ 4.78 µM) and a chromatographic logD [2] of 0.921 ± 0.034. For the same molecule, the IC50 (hP2Y14R; [3]) was 20.4 ± 2.4 nM.
For `O=C(O)c1cc(-c2ccc(C3CC4CCC3CN4)cc2)c2ccc(-c3ccc(C(F)(F)F)cc3)cc2c1` (racemic) [Compound 126], the “Solubility (ug/mL) pH 4” value [1] was 0.80 ± 0.05 ug/mL, the “Solubility (ug/mL) pH 7.4” value [1] was 0.49 ± 0.06 ug/mL and the chromatographic logD [2] was 1.74 ± 0.02.
With `CC1CC(c2ccc(-c3cc(C(=O)O)cc4cc(-c5ccc(C(F)(F)F)cc5)ccc34)cc2)CCN1` (stereo not drawn) [Compound 107, 4-(4-(2-Methylpiperidin-4-yl)phenyl)-7-(4-(trifluoromethyl)phenyl)-2-naphthoic acid] the “Solubility (ug/mL) pH 4” value [1] was 0.31 ± 0.04 ug/mL, the “Solubility (ug/mL) pH 7.4” value [1] was 0.16 ± 0.03 ug/mL and the chromatographic logD [2] was 2.05 ± 0.11. For the same molecule, the IC50 (hP2Y14R; [3]) was 17.8 ± 2 nM.
With `O=C(O)c1cc(-c2ccc(C34CCNCC3C4(F)F)cc2)c2ccc(-c3ccc(C(F)(F)F)cc3)cc2c1` (stereo not drawn) [Compound 109, 4-(4-(7,7-Difluoro-3-azabicyclo[4.1.0]heptan-6-yl)phenyl)-7-(4-(trifluoromethyl)phenyl)-2-naphthoic acid] the “Solubility (ug/mL) pH 4” value [1] was 1.13 ± 0.34 ug/mL, the “Solubility (ug/mL) pH 7.4” value [1] was 0.25 ± 0.01 ug/mL and the chromatographic logD [2] was 2.71 ± 0.33. For the same molecule, the IC50 (hP2Y14R; [3]) was 211 ± 36 nM.
For `O=C(O)c1cc(-c2ccc([C@H]3C[C@@H]4CN[C@H]3C4)cc2)c2ccc(-c3ccc(C(F)(F)F)cc3)cc2c1` [Compound 117, 4-(4-((1S,4S,6R)-2-Azabicyclo[2.2.1]heptan-6-yl)phenyl)-7-(4-(trifluoromethyl)phenyl)-2-naphthoic acid], the chromatographic logD [2] was 2.11 ± 0.06 and the IC50 (hP2Y14R; Table 6, fluorescent hP2Y14R antagonist (3), read-out: hP2Y14R, IC50) was 25.9 ± 7.6 nM.
In the case of `O=C(O)c1cc(-c2ccc([C@]3(O)C[C@H]4CC[C@@H]3CN4)cc2)c2ccc(-c3ccc(C(F)(F)F)cc3)cc2c1` [Compound 125a], the “Solubility (ug/mL) pH 4” value [1] is reported as 2.66 ± 0.29 ug/mL, the “Solubility (ug/mL) pH 7.4” value [1] is reported as 2.19 ± 0.10 ug/mL and the “Log D7.4” value ([2]; HPLC-based lipophilicity) is reported as 0.74 ± 0.05.
With `O=C(O)c1cc(-c2ccc([C@@]3(O)C[C@H]4CC[C@@H]3CN4)cc2)c2ccc(-c3ccc(C(F)(F)F)cc3)cc2c1` [Compound 125b] the “Solubility (ug/mL) pH 4” value [1] was 1.55 ± 0.11 ug/mL and the “Solubility (ug/mL) pH 7.4” value [1] was 0.74 ± 0.06 ug/mL.
With `O=C(O)c1cc(-c2ccc([C@]3(O)C[C@H]4CC[C@@H](C3)N4)cc2)c2ccc(-c3ccc(C(F)(F)F)cc3)cc2c1` [Compound 127, 4-(4-((1R,3r,5S)-3-Hydroxy-8-azabicyclo[3.2.1]octan-3-yl)phenyl)-7-(4-(trifluoromethyl)phenyl)-2-naphthoic acid] the chromatographic logD [2] was 1.16 ± 0.08.
For `O=C(O)c1cc(-c2ccc(C3=CC4CCC(C3)N4)cc2)c2ccc(-c3ccc(C(F)(F)F)cc3)cc2c1` (stereo not drawn) [Compound 128, 4-(4-(8-Azabicyclo[3.2.1]oct-2-en-3-yl)phenyl)-7-(4-(trifluoromethyl)phenyl)-2-naphthoic acid], the “Solubility (ug/mL) pH 4” value [1] was 2.36 ± 0.01 ug/mL, the “Solubility (ug/mL) pH 7.4” value [1] was 0.35 ± 0.04 ug/mL and the chromatographic logD [2] was 2.33 ± 0.04.
With `O=C(O)c1cc(-c2ccc(C3C4CCC3CNC4)cc2)c2ccc(-c3ccc(C(F)(F)F)cc3)cc2c1` (stereo not drawn) [Compound 129, 4-(4-(3-Azabicyclo[3.2.1]octan-8-yl)phenyl)-7-(4-(trifluoromethyl)phenyl)-2-naphthoic acid] the “Solubility (ug/mL) pH 4” value [1] was 0.38 ± 0.04 ug/mL, the “Solubility (ug/mL) pH 7.4” value [1] was 0.13 ± 0.00 ug/mL and the “Log D7.4” value ([2]; calculated from retention factor difference between ligands and 1 (k = 3.41)) was 2.33 ± 0.09^f. It also gave an IC50 (hP2Y14R; [3]) of 38.3 ± 2 nM.
With `CN1C[C@H]2CC[C@@H](C1)[C@]2(O)c1ccc(-c2cc(C(=O)O)cc3cc(-c4ccc(C(F)(F)F)cc4)ccc23)cc1` [Compound 132, 4-(4-((1R,5S,8r)-8-Hydroxy-3-methyl-3-azabicyclo[3.2.1]octan-8-yl)phenyl)-7-(4-(trifluoromethyl)phenyl)-2-naphthoic acid] the solubility ([1]; pH 4, aqueous buffer) was 1.81 ± 0.05 µg/mL (≈ 3.4 µM), the solubility ([1]; pH 7.4, aqueous buffer) was 0.88 ± 0.09 µg/mL (≈ 1.66 µM) and the chromatographic logD [2] was 1.37 ± 0.02. For the same molecule, the IC50 (hP2Y14R) was 44.6 ± 1.7 nM.
Work on `O=C(O)c1cc(-c2ccc(C3C4CCC3CNC4)cc2)c2ccc(-c3ccc(C(F)(F)F)cc3)cc2c1` (stereo not drawn) [Compound 133, 4-(4-(3-Azabicyclo[3.2.1]octan-8-yl)phenyl)-7-(4-(trifluoromethyl)phenyl)-2-naphthoic acid] yielded a solubility ([1]; pH 4, aqueous buffer) of 0.32 ± 0.01 µg/mL (≈ 0.638 µM), a solubility ([1]; pH 7.4, aqueous buffer) of 0.16 ± 0.01 µg/mL (≈ 0.319 µM) and a chromatographic logD [2] of 2.97 ± 0.02. It also gave an IC50 (hP2Y14R) of 696 ± 100 nM.
For `N[C@@H]1C[C@H](CO)C[C@H]1c1ccc(-c2cc(C(=O)O)cc3cc(-c4ccc(C(F)(F)F)cc4)ccc23)cc1` [Compound 136, 4-(4-((1S,2R,4R)-2-Amino-4-(hydroxymethyl)cyclopentyl)phenyl)-7-(4-(trifluoromethyl)phenyl)-2-naphthoic acid], the “Solubility (ug/mL) pH 4” value [1] was 3.74 ± 0.09 ug/mL, the “Solubility (ug/mL) pH 7.4” value [1] was 0.93 ± 0.20 ug/mL and the chromatographic logD [2] was 1.06 ± 0.05. The IC50 (hP2Y14R; [3]) was 100 ± 19 nM.
With `N[C@H]1C[C@@H](C(=O)O)[C@H](c2ccc(-c3cc(C(=O)O)cc4cc(-c5ccc(C(F)(F)F)cc5)ccc34)cc2)C1` [Compound 139, 4-(4-((1R,2R,4R)-4-Amino-2-carboxycyclopentyl)phenyl)-7-(4-(trifluoromethyl)phenyl)-2-naphthoic acid] the “Solubility (ug/mL) pH 4” value [1] was 1.05 ± 0.20 ug/mL, the “Solubility (ug/mL) pH 7.4” value [1] was 5.52 ± 0.21 ug/mL and the “Log D7.4” value ([2]; HPLC-based lipophilicity) was −0.568 ± 0.038. The IC50 (hP2Y14R; [3]) was 102 ± 25 nM.
With `O=C(O)c1cc(-c2ccc(C3CCN(CCCCc4cn([C@@H]5O[C@H](CO)[C@@H](O)[C@H](O)[C@H]5O)nn4)CC3)cc2)c2ccc(-c3ccc(C(F)(F)F)cc3)cc2c1` [Compound 508, 7-(4-(Trifluoromethyl)phenyl)-4-(4-(1-(4-(1-((2R,3R,4S,5S,6R)-3,4,5-trihydroxy-6-(hydroxymethyl)tetrahydro-2H-pyran-2-yl)-1H-1,2,3-triazol-4-yl)butyl)piperidin-4-yl)phenyl)-2-naphthoic acid] the IC50 (hP2Y14R; [3]) was 15.7 ± 2.5 nM.
Work on “Mixture of 4-(4-(2,3,6,7-Tetrahydro-1H-azepin-4-yl)phenyl)-7-(4-(trifluoromethyl)phenyl)-2-naphthoic acid and 4-(4-(2,5,6,7-tetrahydro-1H-azepin-4-yl)phenyl)-7-(4-(trifluoromethyl)phenyl)-2-naphthoic acid [Compound 427]” yielded an IC50 (hP2Y14R; Example 5 table, whole cell fluorescent binding assay, read-out: IC50) of 11.9 ± 3.6 nM.
